Test results published in PMC9692523, “Exposure to (Poly)phenol Metabolites after a Fruit and Vegetable Supplement Intake: A Double-Blind, Cross-Over, Randomized Trial” (Nutrients, 2022).

Key:
[1] = Plasma pharmacokinetics of phenolic metabolites after one 450 mg capsule of the supplement (UHPLC-ESI-MS/MS); format: in vivo, human; conditions: for Cmax / Tmax / Tpres (time of presence of metabolites in circulation): n = 10, mean ± SEM; for Tpres (time of presence of metabolites in circulation): interval between first and last appearance; for AUC0-24: supplemented volunteers (n = 10), 450 mg capsule, mean ± SEM
Experimental: (§1) This study was designed as a 3-week randomized, double-blind, cross-over clinical trial. Eligible participants were randomized using simple block randomization of 1:1. Once enrolled, subjects received either one 450 mg capsule of the test supplement or one 450 mg capsule of placebo on the first day of the study (Phase I: D1). After three days of sampling, volunteers started a wash-out period of 1 week and were then enrolled for the second test Phase with ingestion of the opposite supplement (Phase II: D1) (Figure 1). The placebo product was 100% maltodextrin, which was (poly)phenol-free.
On the day of the test (D1), volunteers visited the Research Center after an overnight fast. Blood was collected at T0 to determine baseline levels of plasma phenolic metabolites. Then, volunteers were invited to take the 450 mg capsule of the supplement or the placebo with 250 mL of still water (Figure 2). Additional blood samples were then collected at 1 h (D1, T1), 2 h (D1, T2), 3 h (D1, T3), 4 h (D1, T4), 5 h (D1, T5), 6 h (D1, T6), 8 h (D1, T8), 10 h (D1, T10) and 24 h (D2, T24) after capsule intake. Blood was taken from the basilica vein and centrifuged at 3000 rpm for 10 min at 4 °C. Plasma was immediately extracted and frozen at −80 °C for further analysis.
Plasma samples were then extracted using a solid phase extraction (SPE) method, as previously reported by Castello and colleagues. Briefly, 350 µL of plasma samples was diluted (1:1) with phosphoric acid 4% (v/v). After plate activation, 600 µL of the diluted plasma samples was loaded on a 96 well µ-SPE HLB (Oasis® HLB µElution Plate 30 µm, Waters, Milford, Massachusetts, MA, USA). Samples were washed with 200 µL of water and 200 µL of 0.2% (v/v) acetic acid. Finally, samples were eluted with 60 µL of methanol for UHPLC-ESI-MS/MS analysis.
(§2) Plasma and urine samples were analyzed by a UHPLC DIONEX Ultimate 3000 equipped with a triple quadrupole TSQ Vantage (Thermo Fisher Scientific Inc) fitted with a heated ESI (H-ESI) (Thermo Fisher Scientific Inc) probe, as previously reported. Separations were carried out by means of a Kinetex EVO C18 (100 × 2.1 mm) column, 2.6 µm particle size (Phenomenex, Torrance, CA, USA), installed with a pre-column (Phenomenex). Mobile phase A was 0.2% formic acid in water, and mobile phase B was acetonitrile containing 0.2% formic acid. The gradient started with 5% B, and isocratic conditions were maintained for 0.5 min, reaching 95% B after 6.5 min, followed by 1 min at 95%. The starting gradient was then immediately re-established and maintained for 5 min to re-equilibrate the column. The flow rate was 0.4 mL/min, the injection volume was 5 µL and the column temperature was set at 40 °C.
(§3) The applied MS method consisted of the selective determination of each target precursor ion by the acquisition of characteristic product ion in selective reaction monitoring (SRM) mode (Supplemental Table S2). For all the analyses, the spray voltage was set at 3 kV, the vaporizer temperature at 300 °C and the capillary temperature operated at 270 °C. The sheath gas flow was 50 units, and auxiliary gas pressure was set to 10 units. Ultra-high purity argon gas was used for collision-induced dissociation (CID). The S-lens values were defined for each compound based on infusion parameter optimization. Conversely, for those compounds not available for infusion, the S-lens values were set using the values obtained for the chemically closest available standards. Quantification was performed with calibration curves of standards when available or using the most structurally similar compound. Data processing was performed using Xcalibur software (Thermo Scientific Inc., San Jose, CA, USA).
All data were expressed as mean values ± standard deviation (SD) and mean values ± standard error to the mean (SEM) for metabolites in blood and urine samples. […]

[2] = Urinary excretion of phenolic metabolites over 48 h after one 450 mg capsule of the supplement (UHPLC-ESI-MS/MS); format: in vivo, human; conditions: urine, n = 10, mean ± SEM; for Urinary excretion 0 (h): baseline (day before)
Experimental: as §1
Urine samples were collected the day before (baseline) and during the 48 h period following the supplementation (T0-T3, T3-T6, T6-T10, T10-T14, T14-T24, T24-T32 and T32-T48) (Figure 2). Urine volumes at each collection period were registered, and samples were aliquoted and stored at −80 °C until further processing.
Then, urine samples were prepared as previously reported by Brindani and colleagues. Briefly, urine samples were defrosted, vortexed, diluted in 0.1% formic acid in water (1:4, v/v) and centrifuged at 12,000 rpm for 5 min. Finally, urine samples were filtered (0.45 µm nylon filter) prior to UHPLC-ESI-MS/MS analysis.
as §2, §3
All data were expressed as mean values ± standard deviation (SD) and mean values ± standard error to the mean (SEM) for metabolites in blood and urine samples. PKSolver add-on program in Microsoft Excel was used to determine pharmacokinetic parameters of blood phenolic metabolites, including time to reach the maximum plasma concentration (Tmax, h), maximum plasma concentration (Cmax, nmol/L), area under the curve (AUC0-24, nmol/L·h), and time of presence of metabolites in circulation (Tpres, h). Tpres was calculated by taking the time interval between the first appearance and the last appearance of the considered metabolite. Coefficient of variation (CV) was evaluated for each metabolite and multivariate principal component analysis (PCA) was applied to explore the inter-individual variation in the urinary metabolites among the participants. […]

Row | Compound | Cmax [1] [nM] | Tmax [1] [h] | Tpres (time of presence of metabolites in circulation) [1] [h] | AUC0-24 [1] [µM·h] | Urinary excretion 0 (h) [2] [µg] | Urinary excretion 0–3 (h) [2] [µg] | Urinary excretion 3–6 (h) [2] [µg] | Urinary excretion 6–10 (h) [2] [µg] | Urinary excretion 10–14 (h) [2] [µg] | Urinary excretion 14–24 (h) [2] [µg] | Urinary excretion 24–32 (h) [2] [µg] | Urinary excretion 32–48 (h) [2] [µg] | Urinary excretion Total (0–48 h) [2] [µg] | Time of first plasma concentration (absorption) peak ([1]; after supplement intake) [h]
1 | O=C1CCC(Cc2cc(O)cc(OC3OC(C(=O)O)C(O)C(O)C3O)c2)O1 (stereo not shown) [compound 10] | 15 ± 5.61 | 12.78 ± 2.85 | 14.44 ± 2.42 | 0.12555 ± 0.04768 | 5.34 ± 5.34 | 0.00 ± 0.00 | 101.70 ± 51.36 | 316.86 ± 132.04 | 199.53 ± 88.98 | 624.93 ± 108.36 | 281.58 ± 60.75 | 65.29 ± 25.62 | 1595.23 ± 260.71 | 
2 | O=C1CCC(Cc2cc(O)cc(OS(=O)(=O)O)c2)O1 (stereo not shown) [compound 16] | 9.97 ± 4.31 | 8.88 ± 2.41 | 10.57 ± 2.72 | 0.03046 ± 0.01185 | 18.25 ± 10.84 | 4.64 ± 3.47 | 439.69 ± 219.42 | 1256.55 ± 516.93 | 944.18 ± 474.02 | 3986.28 ± 711.64 | 1721.60 ± 393.97 | 586.15 ± 240.93 | 8957.33 ± 1361.49 | 
3 | O=C(O)c1ccc(O)c(OC2OC(C(=O)O)C(O)C(O)C2O)c1 (stereo not shown) [compound 35] |  |  |  |  | 1.13 ± 1.13 | 14.20 ± 4.88 | 24.68 ± 5.82 | 12.53 ± 4.10 | 3.10 ± 1.12 | 4.51 ± 1.34 |  |  | 60.16 ± 9.86 | 
4 | COc1cc(C(=O)O)cc(OC)c1O.COc1cc(C(=O)O)cc(OC)c1O [compound 39] |  |  |  |  | 0.71 ± 0.46 | 8.71 ± 8.71 | 3.89 ± 3.81 | 3.57 ± 2.82 | 1.42 ± 1.38 | 3.63 ± 2.95 | 3.33 ± 2.94 | 8.73 ± 8.35 | 33.92 ± 30.72 | 
5 | O=C(O)[C@H]1O[C@@H](Oc2ccc3c(c2)oc(=O)c2ccc(O)cc23)[C@H](O)[C@@H](O)[C@@H]1O [compound 43] |  |  |  |  |  |  |  | 6.91 ± 6.55 | 5.49 ± 5.21 | 36.41 ± 34.54 | 14.38 ± 9.83 | 5.33 ± 5.05 | 68.53 ± 55.19 | 
6 | O=C(O)[C@H]1O[C@@H](Oc2ccc3c(c2)oc(=O)c2ccccc23)[C@H](O)[C@@H](O)[C@@H]1O [compound 44] |  |  |  |  |  |  |  | 5.31 ± 5.04 | 39.56 ± 37.53 | 144.45 ± 90.90 | 74.85 ± 48.79 | 30.99 ± 29.40 | 295.17 ± 185.26 | 
7 | O=C(O)c1ccc(O)c(OS(=O)(=O)O)c1 [compound 45] | 43.6 ± 7.34 | 2.10 ± 0.46 | 13.45 ± 2.80 | 0.19606 ± 0.03272 |  |  |  |  |  |  |  |  |  | 1.38 ± 0.18
8 | COc1cc(CCC(=O)O)ccc1OS(=O)(=O)O [compound 46] | 169 ± 156 | 6.43 ± 2.97 | 7.14 ± 3.61 | 0.55828 ± 0.53121 |  |  |  |  |  |  |  |  |  | 
9 | O=C(O)CNC(=O)c1ccc(O)cc1 [compound 47] | 816 ± 269 | 6.50 ± 1.28 | 21.55 ± 0.74 | 5.71944 ± 1.32787 |  |  |  |  |  |  |  |  |  | 
